{"source": "patent US20240415944A1", "about": "“Aqueous aprotinin-containing antiviral pharmaceutical composition” (priority 2021, published 2024)", "origin": "cited, not measured here", "key": {"influenza": {"tested_on": "influenza", "conditions": "adult influenza patients"}, "[1]": {"conditions": "clinical trials of acute uncomplicated influenza"}, "kallikrein": {"tested_on": "kallikrein", "conditions": "manufacturer data"}, "[2]": {"conditions": "kallikrein inactivating units per mg"}}, "note": "Where two headings read alike, the source gives them in different places."}
{"molecule": "CCOC(=O)C1=C[C@@H](OC(CC)CC)[C@H](NC(C)=O)[C@@H](N)C1", "note": "[Oseltamivir, oseltamivir]", "values": [{"measurement": "mean time to relief of clinical symptoms", "setting": "influenza", "value": 97.5, "unit": "h"}, {"measurement": "risk of nausea (RR)", "setting": "influenza", "value": 1.60}, {"measurement": "risk of vomiting (RR)", "setting": "influenza", "value": 2.43}, {"measurement": "acceleration of time to relief of clinical symptoms", "setting": "influenza; versus placebo", "value": "17.8 to 25.2", "unit": "h"}]}
{"molecule": "COC(=O)OCOc1c2n(ccc1=O)N([C@@H]1c3ccccc3SCc3c1ccc(F)c3F)[C@@H]1COCCN1C2=O", "note": "[baloxavir, baloxavir marboxil]", "values": [{"measurement": "adverse reaction: bronchitis", "setting": "[1]", "value": 3, "unit": "%"}, {"measurement": "adverse reaction: diarrhea", "setting": "[1]", "value": 3, "unit": "%"}, {"measurement": "adverse reaction: headache", "setting": "[1]", "value": 1, "unit": "%"}, {"measurement": "adverse reaction: nausea", "setting": "[1]", "value": 2, "unit": "%"}, {"measurement": "adverse reaction: sinusitis", "setting": "[1]", "value": 2, "unit": "%"}]}
{"molecule": "aprotinin [aprotinin produced by Sigma-Aldrich (USA)]", "values": [{"measurement": "aprotinin activity", "setting": "kallikrein; [2]", "value": 6500, "unit": "KIU/mg"}]}
{"molecule": "aprotinin [aprotinin produced by Wanhua Biochem (China) No. NATE-1892]", "values": [{"measurement": "aprotinin activity", "setting": "kallikrein; [2]", "value": "> 5400", "unit": "KIU/mg"}, {"measurement": "aprotinin activity", "setting": "kallikrein", "value": "> 3.0", "unit": "EPU/mg"}]}
